The values that follow come from patent publication US20070049593A1 (priority 2004, published 2007).

pIC50: −log10 of the molar value. Some results are limits rather than exact numbers.

T1 sequence (P26663 2420-2963): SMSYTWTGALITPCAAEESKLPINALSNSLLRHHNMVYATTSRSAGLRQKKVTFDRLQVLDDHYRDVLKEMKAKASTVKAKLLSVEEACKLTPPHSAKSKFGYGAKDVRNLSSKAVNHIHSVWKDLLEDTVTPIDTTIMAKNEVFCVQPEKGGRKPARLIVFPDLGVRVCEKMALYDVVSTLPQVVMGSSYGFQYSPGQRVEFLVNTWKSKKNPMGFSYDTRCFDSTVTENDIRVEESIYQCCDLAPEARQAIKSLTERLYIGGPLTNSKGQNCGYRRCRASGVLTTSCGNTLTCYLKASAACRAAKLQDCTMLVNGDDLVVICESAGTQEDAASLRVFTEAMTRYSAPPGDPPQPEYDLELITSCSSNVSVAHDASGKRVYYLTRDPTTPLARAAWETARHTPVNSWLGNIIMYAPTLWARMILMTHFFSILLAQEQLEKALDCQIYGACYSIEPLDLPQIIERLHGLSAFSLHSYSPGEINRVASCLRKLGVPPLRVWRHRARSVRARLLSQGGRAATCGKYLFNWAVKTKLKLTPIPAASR

One assay addresses T1, HCV polymerase (Hepatitis C virus genotype 1b, UniProt P26663).
T1 construct: a region encoding NS5B (J Virol 1991 March, 65(3), 1105-13, 544 amino acids after deletion of 47 amino acids on the C-terminal); 6xHis (C); made in house; host or cells: Escherichia coli
As to the kind of experiment: biochemical. Details: species or system HCV BK strain.
Conditions: not given
Summed up:
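Recombinant HCV BK-strain NS5B (C-terminal 47 aa deleted, His6-tagged, E. coli), 0.5 μg/ml, run with 5 μg/ml in vitro-transcribed RNA template (polyU/3′X), ATP/GTP/CTP 50 μM, UTP 2 μM plus [3H]UTP, pH 7.5, 25° C, 90 min. TCA-precipitated RNA counted by scintillation; IC50 from activity with vs without compound.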
Usually pIC50 stands for the negative decadic logarithm of the IC50, by convention in mol/L. Consider `CC(C)(NC(=O)c1ccc2c(C3CCCCC3)c3n(c2c1)CCOc1ccccc1-3)C(=O)Nc1ccc(F)cc1` [Example 2-204, N-[1-(4-fluorophenylcarbamoyl)-1-methylethyl]-12-cyclohexyl-6,7-dihydro-5-oxa-7a-azadibenzo[a,e]azulene-9-carboxamide], for which the pIC50 was greater than 7.00.
`O=C(NCCc1ccc(O)cc1)c1ccc2c(C3CCCCC3)c3n(c2c1)CCOc1ccccc1-3` [Example 2-205, N-[2-(4-hydroxyphenyl)ethyl]-12-cyclohexyl-6,7-dihydro-5-oxa-7a-azadibenzo[a,e]azulene-9-carboxamide]: the pIC50 was greater than 7.00.
In turn, `O=C(NCC1(O)CCCCC1)c1ccc2c(C3CCCCC3)c3n(c2c1)CCOc1ccccc1-3` [Example 2-206, N-(1-hydroxycyclohexylmethyl)-12-cyclohexyl-6,7-dihydro-5-oxa-7a-azadibenzo[a,e]azulene-9-carboxamide] showed a pIC50 of 6.00 to 7.00.
Compound `NC(=O)[C@H](Cc1ccc(O)cc1)NC(=O)c1ccc2c(C3CCCCC3)c3n(c2c1)CCOc1ccccc1-3` [Example 2-207, N—[(S)-1-carbamoyl-2-(4-hydroxyphenyl)ethyl]-12-cyclohexyl-6,7-dihydro-5-oxa-7a-azadibenzo[a,e]azulene-9-carboxamide] gave a pIC50 greater than 7.00.
`CC(C)(NC(=O)c1ccc2c(C3CCCCC3)c3n(c2c1)CCOc1ccccc1-3)C1CCC(C(=O)O)CC1` (stereo not drawn) [Example 2-208, 4-{1-[(12-cyclohexyl-6,7-dihydro-5-oxa-7a-azadibenzo[a,e]azulene-9-carbonyl)amino]-1-methylethyl}cyclohexanecarboxylic acid]: the pIC50 was 6.00 to 7.00.
As for `COC(=O)c1[nH]c(C(C)(C)NC(=O)c2ccc3c(C4CCCCC4)c4n(c3c2)CCOc2ccccc2-4)nc1C` [Example 2-209, methyl 2-{1-[(12-cyclohexyl-6,7-dihydro-5-oxa-7a-azadibenzo[a,e]azulene-9-carbonyl)amino]-1-methylethyl]-5-methyl-3H-imidazole-4-carboxylate], the negative logarithm of the IC50 (pIC50) is greater than 7.00.
As for `CC(C)(CNC(=O)c1ccc(C(=O)O)cc1)NC(=O)c1ccc2c(C3CCCCC3)c3n(c2c1)CCOc1ccccc1-3` [Example 2-211, N-{2-[(12-cyclohexyl-6,7-dihydro-5-oxa-7a-azadibenzo[a,e]azulene-9-carbonyl)amino]-2-methylpropyl}terephthalamic acid], the pIC50 is 6.00 to 7.00.
Take `COC(=O)c1ccc(C(=O)NCC(C)(C)NC(=O)c2ccc3c(C4CCCCC4)c4n(c3c2)CCOc2ccccc2-4)cc1` [Example 2-212, methyl N-{2-[(12-cyclohexyl-6,7-dihydro-5-oxa-7a-azadibenzo[a,e]azulene-9-carbonyl)amino]-2-methylpropyl}-terephthalamate]: the pIC50 was 6.00 to 7.00.
`CN(C)Cc1ccc(NC(=O)C(C)(C)NC(=O)c2ccc3c(C4CCCCC4)c4n(c3c2)CCOc2ccccc2-4)cc1` [Example 2-213, N-[1-(4-dimethylaminomethylphenylcarbamoyl)-1-methylethyl]-12-cyclohexyl-6,7-dihydro-5-oxa-7a-azadibenzo[a,e]azulene-9-carboxamide]: the pIC50 is greater than 7.00.
In the case of `CC(C)(NC(=O)c1ccc2c(C3CCCCC3)c3n(c2c1)CCOc1ccccc1-3)c1nc2cc(C(=O)O)ccc2[nH]1` [Example 2-214, 2-{1-[(12-cyclohexyl-6,7-dihydro-5-oxa-7a-azadibenzo[a,e]azulene-9-carbonyl)amino]-1-methylethyl}-1H-benzimidazole-5-carboxylic acid], the pIC50 is greater than 7.00.
On to `CC(C)(Cc1ccc(C(=O)O)cc1)NC(=O)c1ccc2c(C3CCCCC3)c3n(c2c1)CCOc1ccccc1-3` [Example 2-216, 4-{2-[(12-cyclohexyl-6,7-dihydro-5-oxa-7a-azadibenzo[a,e]azulene-9-carbonyl)amino]-2-methylpropyl}benzoic acid], for which the pIC50 was 6.00 to 7.00.
Still for that read-out and setting: the same measure for `O=C(N[C@H](CO)Cc1ccc(O)cc1)c1ccc2c(C3CCCCC3)c3n(c2c1)CCOc1ccccc1-3` [Example 2-217, N—[(S)-1-hydroxymethyl-2-(4-hydroxyphenyl)ethyl]-12-cyclohexyl-6,7-dihydro-5-oxa-7a-azadibenzo[a,e]azulene-9-carboxamide]: greater than 7.00.
On the same count and under the same terms, with `COC(=O)[C@H](Cc1ccc(OC)cc1)NC(=O)c1ccc2c(C3CCCCC3)c3n(c2c1)CCOc1ccccc1-3` [Example 2-218, methyl (S)-2-[(12-cyclohexyl-6,7-dihydro-5-oxa-7a-azadibenzo[a,e]azulene-9-carbonyl)amino]-3-(4-methoxyphenyl)propionate] the figure was greater than 7.00; with `COc1ccc(CC(C)(C)NC(=O)c2ccc3c(C4CCCCC4)c4n(c3c2)CCOc2ccccc2-4)cc1` [Example 2-219, N-[2-(4-methoxyphenyl)-1,1-dimethylethyl]-12-cyclohexyl-6,7-dihydro-5-oxa-7a-azadibenzo[a,e]azulene-9-carboxamide], 6.00 to 7.00; with `CC(C)(Cc1ccc(O)cc1)NC(=O)c1ccc2c(C3CCCCC3)c3n(c2c1)CCOc1ccccc1-3` [Example 2-220, N-[2-(4-hydroxyphenyl)-1,1-dimethylethyl]-12-cyclohexyl-6,7-dihydro-5-oxa-7a-azadibenzo[a,e]azulene-9-carboxamide], 6.00 to 7.00.
In the case of `O=C(O)c1ccc2c(C3CCCCC3)c3n(c2c1)CCOc1c-3cccc1N(CCc1ccccc1)CCN1CCCCC1` [Example 2-221, 12-cyclohexyl-4-{N-phenethyl-N-[2-(piperidin-1-yl)ethyl]amino}-6,7-dihydro-5-oxa-7a-azadibenzo[a,e]azulene-9-carboxylic acid], the pIC50 is greater than 7.00.
The compound `CC(=O)N1CCC(NC(=O)c2ccc3c(C4CCCCC4)c4n(c3c2)CCOc2ccccc2-4)(C(=O)Nc2ccc(/C=C/C(=O)O)cc2)CC1` [Example 2-222, (E)-3-[4-({1-acetyl-4-[(12-cyclohexyl-6,7-dihydro-5-oxa-7a-azadibenzo[a,e]azulene-9-carbonyl)amino]piperidine-4-carbonyl}amino)phenyl]acrylic acid] gave a pIC50 greater than 7.00.
As to `CN1CCC(NC(=O)c2ccc3c(C4CCCCC4)c4n(c3c2)CCOc2ccccc2-4)(C(=O)Nc2ccc(/C=C/C(=O)O)cc2)CC1` [Example 2-223, (E)-3-[4-({4-[(12-cyclohexyl-6,7-dihydro-5-oxa-7a-azadibenzo[a,e]azulene-9-carbonyl)amino]-1-methylpiperidine-4-carbonyl]amino)phenyl]acrylic acid], the pIC50 is greater than 7.00.
As to `CC(C)(COc1ccc(N)cc1)NC(=O)c1ccc2c(C3CCCCC3)c3n(c2c1)CCOc1ccccc1-3` [Example 2-224, N-[2-(4-aminophenoxy)-1,1-dimethylethyl]-12-cyclohexyl-6,7-dihydro-5-oxa-7a-azadibenzo[a,e]azulene-9-carboxamide], the pIC50 was greater than 7.00.
The compound `CC(C)(NC(=O)c1ccc2c(C3CCCCC3)c3n(c2c1)CCOc1ccccc1-3)c1nc2ccc(C(N)=O)cc2[nH]1` [Example 2-225, N-[1-(6-carbamoyl-1H-benzimidazol-2-yl)-1-methylethyl]-12-cyclohexyl-6,7-dihydro-5-oxa-7a-azadibenzo[a,e]azulene-9-carboxamide] gave a negative logarithm of the IC50 (pIC50) greater than 7.00.

Staying with this assay, now noted: read-out: HCV polymerase inhibitory activity IC50; 25° C., 90 min; [5,6-3H]UTP incorporation into RNA.
`COC(=O)C(Cc1c[nH]c2ccc(O)cc12)NC(=O)c1ccc2c(C3CCCCC3)c3n(c2c1)CCOc1ccccc1-3` (stereo not drawn) [Example 2-210]: the pIC50 was greater than 7.00.
